Laboratory results reported in patent US20020119917A1, “ANTI-INFLAMMATORY PEPTIDES DERIVED FROM C-REACTIVE PROTEIN” (priority 1996, published 2002).
Like-named read-outs stand apart in the source and are kept apart here. Starred links: 1 amine or outer side, 2 acyl side, 3 side chain; linkers in the order of their positions; H or OH if unused. Non-standard residues stand in square brackets, D forms with d. Residues, ends and D or L forms follow the SMILES beside them. No end group written: not given here. *: point of attachment. Fmoc = O=C(OCC1c2ccccc2-c2ccccc21)*; NH(1-naphthyl) = c1ccc2c(N*)cccc2c1; MeOSuc = COC(=O)CCC(=O)*; Cbz = O=C(OCc1ccccc1)*; CO = O=C([*:1])[*:2]

Assays:
[1] = molecular target: T1, human leukocyte elastase (hLE) (Homo sapiens, UniProt P08246); assay: In-vitro inhibition of hLE (cleavage of MeOSuc-AAPV-NA); assay type: biochemical
T1 construct: Neutrophils (1.4 billion) were isolated from whole blood obtained from a single healthy laboratory donor; from tissue; host or cells: neutrophils from whole blood of a single healthy donor
T1 sequence (P08246 30-247 limits assumed): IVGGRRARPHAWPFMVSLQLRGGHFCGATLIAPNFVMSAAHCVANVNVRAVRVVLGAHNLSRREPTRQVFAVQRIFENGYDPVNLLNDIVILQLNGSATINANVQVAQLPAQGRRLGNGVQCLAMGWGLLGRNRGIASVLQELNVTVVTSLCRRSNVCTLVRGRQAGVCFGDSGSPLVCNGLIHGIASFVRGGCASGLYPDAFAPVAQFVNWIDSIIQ
Procedure: (§1) The enzymatic activity was assayed with MeOSuc-AAPV-NA for hLE determination and Suc-AAPF-NA for hCG determination (both in 100 mM Hepes buffer, pH 7.4, containing 0.05% of the […] detergent Brij-35). The activities of the individual enzymatic fractions were 100% free from cross-contamination. […] The fractions containing hLE and hCG were dialyzed each against 0.1% pyridinium acetate, pH 5.3, divided into 20 aliquots, lyophilized, and stored at −20° C. until use.
Peptides were dissolved in 100 mM Hepes buffer pH 7.4 containing 0.1% Brij-35 with 10% DMSO to yield 600 μM solutions, which were used to make further dilutions with the same buffer, and 80 μL aliquots were added in duplicates to 96-well plates. The substrate, 600 or 900 μM MeOSuc-AAPV-NA in the same buffer with 5% DMSO, was added to each well in addition to the blank wells, and the plate was placed in the plate reader equilibrated to 37° C. (Dynateck MR-6000). Lyophilized aliquots of hLE were dissolved in 1600 μL of 100 mM Hepes buffer without DMSO, and 80 μL of the enzyme solution was added to the peptides and substrate to initiate the reaction. […] The final volume was 240 μL containing: 5% DMSO, 1-200 μM of peptide, 200 μM substrate, and 0.75 μg (about 25 picomol) enzyme.
For hLE, V is determined by fitting a linear equation to the first 6 time-points (10 min) of the kinetics data using the least squares method. […] From calculating the error in the slope of the equation, the relative error for Ki was deduced:
Ki={slope*(1+[S]/Km)}^−1 because Ki=[I]*{(1+[S]/Km)*(Vo/Vi−1)}^−1.
The hLE inhibitory capability of CRP-derived peptides was evaluated by inhibiting the enzymatic cleavage of MeOSuc-AAPV-NA as described in Materials and Methods (section v).

[2] = molecular target: T2, human leukocyte cathepsin G (hCG) (Homo sapiens, UniProt P08311); assay: In-vitro inhibition of hCG (conversion of Suc-AAPF-NA); assay type: biochemical
T2 construct: Neutrophils (1.4 billion) were isolated from whole blood obtained from a single healthy laboratory donor; from tissue; host or cells: neutrophils from whole blood of a single healthy donor
T2 sequence (P08311 21-244 limits assumed): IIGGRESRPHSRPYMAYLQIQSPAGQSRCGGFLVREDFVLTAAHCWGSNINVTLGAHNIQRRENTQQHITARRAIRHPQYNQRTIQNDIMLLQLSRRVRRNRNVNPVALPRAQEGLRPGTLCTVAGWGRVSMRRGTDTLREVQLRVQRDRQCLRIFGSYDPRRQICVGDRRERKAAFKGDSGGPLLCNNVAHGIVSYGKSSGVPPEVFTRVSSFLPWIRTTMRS
Procedure: as §1
Similar conditions to hLE inhibition experiments ere used except the substrate: 80 μL of 1.8 mM Suc-AAPF-NA. The enzyme was issolved in 800 μL buffer, and the reaction was monitored every 6 min for 1 hour. The final volume was 240 μL containing: 5% DMSO, 1-500 μM peptide, 600 μM substrate, and 1.2 μg enzyme (about 40 picomol).
For hCG, V is determined by fitting a quadratic equation to the total kinetic data (60 min), using the least squares method and calculating V at t=0.
The inhibitory capability of several CRP-derived peptides was evaluated by inhibiting the enzymatic conversion of Suc-AAPF-NA (as described in Materials and Methods (vi) above).

hLE [3] = molecular target: T3, hLE (Homo sapiens, UniProt P08246); assay: Degradation profiles of peptides by RP-HPLC after incubation with hLE; assay type: in vitro ADME; details: incubated with hLE in PBS, 37° C., time-scale hours
T3 construct: Neutrophils (1.4 billion) were isolated from whole blood obtained from a single healthy laboratory donor; from tissue; host or cells: neutrophils from whole blood of a single healthy donor
T3 sequence (P08246 30-247 limits assumed): T1 sequence (P08246 30-247 limits assumed)
Procedure: Several active peptide inhibitors were dissolved in calcium- and magnesium-free phosphate-buffered saline (PBS), 125 μg/250 μL, mixed with 0.25 aliquots of hLE or hCG in 250 μL PBS and incubated at 37° C. Periodically (1,3,8, and 24 hour), 100 μL samples were removed from the reaction vessel. The samples were diluted with 150 μL of 0.1% TFA, frozen with liquid nitrogen, and stored at −20° C. prior to HPLC analysis.
More insight into the mechanism of inhibition is provided by HPLC time-course elution profiles of peptide 1, incubated with hLE in PBS (FIG. 2). […] The other bonds in peptide 1 are cleaved only after several days of incubation with the enzyme.

hLE [4] = molecular target: T4, hLE (Homo sapiens, UniProt P08246); details: CRP as a whole protein; cited from earlier work
T4 sequence (P08246 30-267): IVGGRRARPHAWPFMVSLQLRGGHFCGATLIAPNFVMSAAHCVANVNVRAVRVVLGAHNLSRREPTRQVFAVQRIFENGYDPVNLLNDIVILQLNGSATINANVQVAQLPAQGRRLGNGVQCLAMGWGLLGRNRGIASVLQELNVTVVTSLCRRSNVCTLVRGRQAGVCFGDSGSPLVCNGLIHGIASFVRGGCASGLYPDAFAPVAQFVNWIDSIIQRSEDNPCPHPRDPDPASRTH

[5] = system: specific receptors on human neutrophils; details: in vitro; cited from earlier work
[6] = molecular target: specific receptors on monocytes; details: in vitro; cited from earlier work

CC[C@H](C)[C@H](NC(=O)[C@H](Cc1c[nH]cn1)NC(=O)[C@@H](NC(=O)[C@@H]1CCCN1C(=O)[C@H](C)NC(=O)[C@@H](NC(=O)[C@@H](NC(=O)[C@@H](NC(=O)Nc1cccc2ccccc12)C(C)C)[C@@H](C)O)C(C)C)C(C)C)C(=O)O [Peptide 18, Naphtyl-NH-CO-Val89-Thr-Val-Ala-Pro-Val-His-Ile96] ({NH(1-naphthyl)-CO}-VTVAPVHI-OH)
Ki [1]: 240 ± 35 µM | Ki [2]: 300 ± 40 µM

VTVAPFHIP-NH2 [Peptide 13, Val89-Thr-Val-Ala-Pro-Phe-His-Ile96-Pro-NH2]
Ki ([1]; substrate MeOSuc-AAPV-NA, 100 mM Hepes pH 7.4, 37° C., read-out: hLE Ki): 180 ± 30 µM | Ki ([2]; substrate Suc-AAPF-NA, 600 μM, read-out: hCG Ki): 900 ± 200 µM

H-VTVAPVHI-OH [Peptide 1, Val89-Thr-Val-Ala-Pro-Val-His-Ile96]
Ki [1]: 120 ± 15 µM | Ki [2]: 1400 ± 200 µM | hCG inhibitory capability (in words) [2]: slightly inhibitory | cleavage by hLE (HPLC time-course elution profile) (hLE [3]): cleaved as predicted exclusively at the Val-His bond

SFTVGGSEILFEVPEVTVAPVHI [Peptide 3]
Ki [1]: 27 ± 3 µM | Ki [2]: 500 ± 100 µM

CC[C@H](C)[C@H](NC(=O)[C@@H](Cc1c[nH]cn1)NC(=O)[C@@H](NC(=O)[C@@H]1CCCN1C(=O)[C@H](C)NC(=O)[C@@H](NC(=O)[C@@H](NC(=O)[C@@H](N)C(C)C)[C@@H](C)O)C(C)C)C(C)C)C(=O)O [Peptide 6, Val89-Thr-Val-Ala-Pro-Val-(D)His-Ile96] (H-VTVAPV[dH]I-OH; N-terminus and C-terminus assumed)
Ki [1]: 450 ± 45 µM | cleavage by hLE (HPLC time-course elution profile) (hLE [3]): No observable cleavage products

CC[C@H](C)[C@H](NC(=O)[C@H](Cc1c[nH]cn1)NC(=O)[C@@H](NC(=O)[C@@H]1CCCN1C(=O)[C@H](C)NC(=O)[C@@H](NC(=O)[C@@H](NC(=O)[C@@H](NC(=O)[C@H](Cc1ccccc1)NC(=O)CCC(=O)OC)C(C)C)[C@@H](C)O)C(C)C)C(C)C)C(=O)O [Peptide 16, MeOSuc-Phe-Val89-Thr-Val-Ala-Pro-Val-His-Ile96] (MeOSuc-FVTVAPVHI-OH)
Ki [1]: 100 ± 10 µM | Ki [2]: 100 ± 200 µM

DIGYSFTVGGSEILFEVPEVTVAPVHICT [Peptide 3c]
Ki [1]: 4 µM | Ki [2]: 22 ± 3 µM

CC[C@H](C)[C@H](NC(=O)[C@@H](Cc1c[nH]cn1)NC(=O)[C@H](NC(=O)[C@@H]1CCCN1C(=O)[C@H](C)NC(=O)[C@@H](NC(=O)[C@@H](NC(=O)[C@@H](N)C(C)C)[C@@H](C)O)C(C)C)C(C)C)C(=O)O [Peptide 8, Val89-Thr-Val-Ala-Pro-(D)Val-(D)His-Ile96] (H-VTVAP[dV][dH]I-OH; N-terminus and C-terminus assumed)
Ki [1]: 490 ± 50 µM | cleavage by hLE (HPLC time-course elution profile) (hLE [3]): No observable cleavage products

CC[C@H](C)[C@H](NC(=O)[C@H](Cc1c[nH]cn1)NC(=O)[C@H](NC(=O)[C@@H]1CCCN1C(=O)[C@H](C)NC(=O)[C@@H](NC(=O)[C@@H](NC(=O)[C@@H](N)C(C)C)[C@@H](C)O)C(C)C)C(C)C)C(=O)O [Peptide 7, Val89-Thr-Val-Ala-Pro-(D)Val-His-Ile9] (H-VTVAP[dV]HI-OH; N-terminus and C-terminus assumed)
Ki [1]: 330 ± 130 µM | cleavage by hLE (HPLC time-course elution profile) (hLE [3]): No observable cleavage products

CC[C@H](C)[C@H](NC(=O)[C@H](Cc1c[nH]cn1)NC(=O)[C@@H](NC(=O)[C@@H]1CCCN1C(=O)[C@H](C)NC(=O)[C@@H](NC(=O)[C@@H](NC(=O)[C@@H](NC(=O)OCC1c2ccccc2-c2ccccc21)C(C)C)[C@@H](C)O)C(C)C)C(C)C)C(=O)O [Peptide 23, Fmoc-Val89-Thr-Val-Ala-Pro-Val-His-Ile96] (Fmoc-VTVAPVHI-OH)
Ki [1]: 1000 ± 100 µM | Ki [2]: 280 ± 30 µM

CRP: plasma protein, major acute phase reactant; five identical sub-units of 206 amino acids forming a cyclic pentamer
inhibitory effect on hLE (hLE [4]): no inhibitory effect | Kd [5]: ~0.05 µM | Kd [6]: ~0.1 µM

SFTVGGSEILFEVPEVTVAPVHICT [Peptide 3a]
Ki [1]: 20 ± 3 µM | Ki [2]: 180 ± 30 µM

GSEILFEVPEVTVAPVHI [Peptide 2, Gly79-Ser-Glu-Ile-Leu-Phe-Glu-Val-Pro-Glu-Val-Thr-Val-Ala-Pro-Val-His-Ile96]
Ki [1]: 50 ± 5 µM | Ki [2]: 1200 ± 200 µM

CC[C@H](C)[C@H](NC(=O)[C@H](Cc1c[nH]cn1)NC(=O)[C@@H](NC(=O)[C@@H]1CCCN1C(=O)[C@H](C)NC(=O)[C@@H](NC(=O)[C@@H](NC(=O)[C@@H](NC(=O)[C@H](Cc1ccccc1)NC(=O)OCc1ccccc1)C(C)C)[C@@H](C)O)C(C)C)C(C)C)C(=O)O [Peptide 21, CBz-Phe-Val89-Thr-Val-Ala-Pro-Val-His-Ile96] (Cbz-FVTVAPVHI-OH)
Ki [1]: 380 ± 115 µM | Ki [2]: 430 ± 60 µM
